Measured values: patent US4645779A, “Dialkylaminoalkoxybenzylalcohol derivatives, process for their preparation and pharmaceutical compositions containing them” (Richter Gedeon Vegyeszeti Gyar Rt, priority 1982, dated 1987)

How the values were obtained:
mice = conditions: cited from earlier work
[1] = Acute toxicity, single oral dose, 14 days observation; type: in vivo, rat; conditions: rat, in vivo, po, 500 mg./kg. p.o., n=10, read-out: Perished animals (%)
Experimental: (§1) The acute toxicity of the compounds provided by the invention was determined on Wistar rats of both sexes, each weighing 160 to 180 g., which had been treated with a single 500 mg./kg. dose of the test compounds, orally. […] In Table 3 the percentage of the perished animals is given.

Hann.-Wistar rats = assay: Effect on ethanolic narcosis period (righting reflex); type: in vivo, rat; conditions: 1 h before ethanol 3.5 g./kg. i.p., control = 100 ± 4.0, n=10
Experimental: The effect of the compounds according to the invention on ethanolic narcosis period was tested on Hann.-Wistar rats of both sexes, weighing 160 to 180 g. each. The animals were fasted for 16 hours prior to treatment. Groups of ten were then treated with various doses of the compounds of the formula (I) orally. One hour after treatment the animals were given a 3.5 g./kg. dose of ethanol, intraperitoneally. The narcosis period of the animals was measured from the elapse of the righting reflex until a spontaneous correction of the body position. The average of the narcosis period and the standard error were calculated, and the results are given in percentage of the control in Table 1. Abbreviations: x±S.E.=means value ± standard error n=number of animals The control group was treated with a placebo and a […]. dose of ethanol. Narcosis period of the control: 88.5±3.54x±S.E. minutes

BALB/c mice = assay: Effect on ethanolic locomotoric hyperactivity / locomotor activity (Animex BSE motimeter); type: in vivo, mouse; conditions: n=15
Experimental: The effect of the compounds provided by the invention on ethanolic locomotoric hyperactivity was tested on BALB/c mice of both sexes, each weighing 16 to 18 g. The test materials were administered to groups of 15 in a 40 mg./kg. oral dose, one hour before administering a placebo orally or a 2 g./kg. dose of ethanol intraperitoneally. The control animals were treated with a placebo. The locomotor activity of the animals was measured for two hours, using an Animex BSE motimeter. The results are shown as a Table 2, in percentage of the control.
°Control (treated with placebo): ^-x ± S.E. = 3118.3 ±
305.6 total motion/2 hours

Wistar rats = assay: Acute toxicity, single oral dose, 14 days observation; type: in vivo, rat; conditions: 500 mg./kg. p.o., n=10
Experimental: as §1

[2] = in vivo; cited from earlier work
[3] = in vivo; cited from earlier work; remark: listed apart in the source

For `CC(N)(Cc1ccc(O)cc1)C(=O)O` (stereo not drawn) [α-methyl-paratyrosine], the “spontaneous locomotoric activity (in words)” value (mice; in the effective dose range) is given as “a decrease of the spontaneous locomotoric activity” and the “ethanolic locomotoric hyperactivity (in words)” value (mice; mice) is given as “normalizes the ethanolic locomotoric hyperactivity”.
For `CCCN(CCC)CCCOc1ccc(C(O)(CC)c2cccc(Cl)c2)cc1` (stereo not drawn) [B, α-ethyl-α-(3-chlorophenyl)-4-[3-(di-n-propylamino)-propoxy]-benzylalcohol], the mortality at 336 h [1] was 0%, the “Ethanolic narcosis period, control ± S.E. %” value (Hann.-Wistar rats; 0.3 mg./kg. orally) was 65 ± 6.8% and the “Ethanolic narcosis period, control ± S.E. %” value (Hann.-Wistar rats; 1.0 mg./kg. orally) was 53 ± 4.7%. The “Ethanolic narcosis period, control ± S.E. %” value (Hann.-Wistar rats; 10.0 mg./kg. orally) was 49 ± 2.8%, the “Locomotor activity total motion/2 hour (%)” value (BALB/c mice; B + ethanol 2000 mg./kg. i.p., 40 mg./kg. oral 1 h before, control = 100 ± 9.8, ethanol + placebo = 170 ± 11.8) was 70 ± 8.4% and the “Locomotor activity total motion/2 hour (%)” value (BALB/c mice; B + placebo (no ethanol), 40 mg./kg. oral, control = 100 ± 9.8) was 108 ± 13.3%.
For `CCC(O)(c1ccc(OCCN(C(C)C)C(C)C)cc1)c1ccccc1C(F)(F)F` (stereo not drawn) [Compound C, α-ethyl-α-(2-trifluoromethylphenyl)-4-[3-(di-isopropylamino)-ethoxy]-benzylalcohol], the “Perished animals (%)” value (Wistar rats) was 0% and the “Ethanolic narcosis period, control ± S.E. %” value (Hann.-Wistar rats; 40.0 mg./kg. orally) was 62 ± 5.1%.
In the case of `CCCN(CCC)CCCOc1ccc(C(O)(CC)c2ccccc2OC)cc1` (stereo not drawn) [A, α-ethyl-α-(2-methoxyphenyl)-4-[3-(di-n-propylamino)-propoxy]-benzylalcohol], the mortality at 336 h [1] is reported as 0%, the “Ethanolic narcosis period, control ± S.E. %” value (Hann.-Wistar rats; 5.0 mg./kg. orally) is reported as 60 ± 10.1% and the “Ethanolic narcosis period, control ± S.E. %” value (Hann.-Wistar rats; 10.0 mg./kg. orally) is reported as 50 ± 6.9%.
In the case of `CC(N)Cc1ccccc1` (centres unmarked) [amphetamine], the “motoric incoordination (ataxia) (in words)” value [2] is listed as “prolong the motoric incoordination (ataxia)” and the “narcotizing effect of alcohol (in words)” value [3] is listed as “moderate the narcotizing effect of alcohol”.
In the case of `Cn1c(=O)c2c(ncn2C)n(C)c1=O` [caffeine], the “motoric incoordination (ataxia) (in words)” value [2] is given as “prolong the motoric incoordination (ataxia)” and the “narcotizing effect of alcohol (in words)” value [3] is given as “moderate the narcotizing effect of alcohol”.
In the case of `N[C@@H](CS)C(=O)O` [L-cysteine, reference compound], the mortality at 336 h [1] is given as 0%, the “Ethanolic narcosis period, control ± S.E. %” value (Hann.-Wistar rats; 500.0 mg./kg. orally) is given as 63 ± 4.2% and the “alcoholic intoxication, i.e. narcosis period (in words)” value [3] is given as “shortened”.
